# Reference: patent US20140186268A1, “Oxide Ferrimagnetics with Spinel Structure Nanoparticles and Iron Oxide Nanoparticles, Biocompatible Aqueous Colloidal Systems Comprising Nanoparticles, Ferriliposomes, and Uses Thereof” (priority 2011, published 2014)
# Legend:
# [1] = system: orthotopic allograft mouse breast cancer model; assay: Doxorubicin treatment, orthotopic allograft mouse breast cancer model; format: in vivo; conditions: single dose 15 mg/kg, two weeks after administration
# Procedure: Doxorubicin hydrochloride (Sigma) was dissolved in ferromagnetic iron oxide nanoparticles containing stabilizing buffer and then encapsulated into PEGylated liposomes. Three weeks after transplantations of primary cells (average tumour volume 75 mm^3) ferriliposomes loaded with doxorubicin were administered at a dose of 15 mg/kg (Dox+FLt, n=4). Magnets of 0.33 T (diameter 4.5 mm) were glued to the tumour by cyanoacrylate before injection and removed by acetone 24 hours after administration. Control group was treated with systemic administration of doxorubicin without any targeting (Dox, n=4). The horizontal and vertical tumour diameters were measured by digital calliper twice per week and volumes were calculated using the formula V=(a×b2)π/6 where a and b are the longer and shorter diameter of the tumour, respectively.
# [2] = set-up: species or system rats; conditions: rat, in vivo, 500 mg/kg
# Procedure: Female rats were treated with 500 mg/kg of iron oxide nanoparticles (n=16) and stabilizing buffer (n=8) as control. […] were sacrificed at day 7 and 12 after injection. Blood was collected and serum separation performed by centrifugation in Li-heparin 0.6 ml flasks (Fuji Photo Film Co., Ltd. Life Science Products Division). Biochemical parameters of creatinine, urea nitrogen, alanine transaminase, aspartate transaminase, creatine phosphokinase and total bilirubin in blood were analyzed by biochemical analyzer Fujifilm DRI CHEM 3500i (Fuji Photo Film Co., Ltd. Life Science Products Division). The kidneys, spleen, liver, heart and lung tissues were collected and fixed in 10% neutral formalin. Organs were dehydrated and maintained in paraffin blocks. 5 μm paraffin sections were stained by hematoxylin and eosin for histo-pathological analysis. iron oxide nanoparticles were detected in animal tissues by Prussian blue staining with carmine (Sigma).
Compound,reduction of tumour volume [1],"histo-pathological analysis of lung, liver, kidney and spleen [2]"
COc1cccc2c1C(=O)c1c(O)c3c(c(O)c1C2=O)C[C@@](O)(C(=O)CO)C[C@@H]3O[C@H]1C[C@H](N)[C@H](O)[C@H](C)O1 [doxorubicin],60%,–
Fe3O4 [iron oxide nanoparticles],–,No morphological changes
